{"source": "patent US6689762B1", "about": "“Composition and methods for treatment of HIV infection” (Enzon Pharmaceuticals, Inc., priority 1998, dated 2004)", "molecules": {"B1": {"name": "PEG-ASNase: asparaginase conjugated with polyethylene glycol (PEG); sold under the name ONCASPAR by Rhône-Poulenc Rorer (conjugate, UniProt P00805 23-348, looked up)", "L-asparaginase 2": "LPNITILATGGTIAGGGDSATKSNYTVGKVGVENLVNAVPQLKDIANVKGEQVVNIGSQDMNDNVWLTLAKKINTDCDKTDGFVITHGTDTMEETAYFLDLTVKCDKPVVMVGAMRPSTSMSADGPFNLYNAVVTAADKASANRGVLVVMNDTVLDGRDVTKTNTTDVATFKSVNYGPLGYIHNGKIDYQRTPARKHTSDTPFDVSKLNELPKVGIVYNYANASDLPAKALVDAGYDGIVSAGVGNGNLYKSVFDTLATAAKTGTAVVRSSRVPTGATTQDAEVDDAKYGFVASGTLNPQKARVLLQLALTQTKDPQQIQQIFNQY", "modifications": "PEG conjugate (pegaspargase)", "notes": "asparaginase conjugated with polyethylene glycol (PEG); sold under the name ONCASPAR by Rhône-Poulenc Rorer"}}, "key": {"[1]": {"tested_on": "HIV-RNA in HIV-1 infected CEM/0 T-cell pellets", "assay": "HIV-1 quantitative RNA assay (HIV-1 Monitor) in CEM/0 T-cell pellets", "type": "cell-based", "details": "for mean, X3: Table 7; for N*: Table 7, per specimen, day 7, PEG 0.400 IU/ml, SAQ 25 uM, AZT 1 uM, MISID 0.685 uM, combinations PEG 0.233 IU/ml + SAQ 14.52 uM; for % control: Table 7 and text of Experiment 9; for Log 10 N: Table 2, per flask", "experimental": "This experiment is carried out using a similar procedure, and the same concentrations of materials as in Experiment 1, however the exposure of HIV-RNA in T-cell pellets to a combination of PEG-ASNase and Saquinavir is measured. […] It should be noted that “PEG” in Table 2 represents PEG-ASNase.\nThe cell line used for these studies is CEM/0, a human T-cell leukemic cell line. PEG-ASNase (ONCASPAR) is provided by Rhone-Poulenc Rorer. Saquinavin is commercially available. AZT is purchased from Sigma. MISID, a ribonucleotide reductase inhibitor, is synthesized as indicated in Nandy P, Lien E J, Avramis V I, Med. Chem. Res. 1995, 5:664-679. RPMI-1640 media (Irvine Scientific, Irvine, Calif.), is enriched with 10% Fetal Calf Serum (Gemini Biosource, Calabasas, Calif.), 5% 1M Hepes Buffer solution and 5% Non-essential amino acids (Irvine Scientific, Irvine, Calif.). The drug concentrations used are as follows:\nBriefly, 3×10^6 cells/ml are stimulated with PHA+ media for 48 hours at 37° C. with 5% CO2. Also, the same number of cells are incubated in PHA free media for 48 hours to serve as the negative control. At this point the cells are inoculated with the HIV-1 virus as per standard protocol. Note that in this experiment, the HIV containing supernatant from the PHA-stimulated healthy human peripheral mononuclear cells (PBMC) is not removed from the PHA-stimulated CEM/0 cell culture. […] These virus particles are released by already infected T-cells and/or lymph nodes of patients.\nThe experimental drugs are added to the cells in the appropriate concentrations at the same time as viral inoculation or 90 minutes after the viral incubation, a time sufficient for the T-cells to be infected and start producing new HIV-1 virus particles. The control cells are resuspended in drug-free media for the duration of the exposure which lasted seven days. Aliquots of media from the control flasks only are obtained on day 5 post Rx. At day seven, three 1 ml each, aliquots of media are removed from the flasks and stored under liquid nitrogen. In addition, the remaining cells are split into three and then pelleted and stored at −80° C.\nThe samples produced from this experiment are itemized. The cell pellets of the cellular cultures (see Experiment 7) from the 90 minute viral incubation flasks are assayed for HIV-RNA quantitative assay using a kit for the assay, non-radioactive. The standard curve is determined and the HIV-RNA levels for the experimental samples are calculated and reported previously."}, "[2]": {"tested_on": "CEM/0 cells", "assay": "cells", "type": "cell-based, human", "details": "for IC50: Homo sapiens, CCRF-CEM", "description": "A human leukemic T-cell line, hereafter referred to as CEM/0 is used for this experiment. PEG-ASNase is obtained from Rhone-Poulenc Rorer Pharmaceuticals Inc under the tradename Oncaspar®. Saquinavir is obtained from Roche Laboratories under the tradename Invirase™. RPMI-1640 media obtained from Irvine Scientific, Irvine Calif. is enriched with 10% Fetal Calf Serum obtained from Gemini Biosource, Calabasas, Calif., 5% 1M Hepes buffer solution and 5% non-essential amino acids obtained from Irvine Scientific, Irvine Calif.\nAn experiment is carried out to determine the cytotoxicity of Saquinavir and PEG-ASNase. For determining the cytotoxicity of either compound alone, 2×10^5 cells/ml are incubated in 24-well plates with the following drug concentrations:\n(§1) In all in vitro studies, the negative control cells are incubated in a drug-free media for the same duration and under the same conditions as the experimental samples. Cell density is measured via cell counting using a Coulter Counter coupled with a Coulter Channelyzer for each of the experimental flasks at 24, 48 and 72 hours after incubation. Additionally, Trypan Blue Exclusion tests are performed for each of these experimental conditions. Cell numbers are corrected for the viability determined by the Trypan Blue test and presented as a percentage of the untreated control."}, "[3]": {"tested_on": "CEM/0 cells", "assay": "Sequential and concurrent combination cytotoxicity of PEG-ASNase and Saquinavir", "type": "cell-based, human", "details": "CEM/0 T-cells", "experimental": "In this experiment, the described range of concentrations is used to investigate the combined regimen of Saquinavir and PEG-ASNase. For the sequential combination studies of PEG-ASNase followed by Saquinavir, cells are incubated with the concentrations provided below of PEG-ASNase for 24 hours. Then Saquinavir, in the concentrations provided below, is added to the appropriate cells for an additional twenty-four (24) hours, bringing the total exposure time to forty-eight (48) hours. The exposure involved 2×10^5 cells/ml being incubated in a tissue culture flask with concentrations of the drugs investigated as provided below. […] The drug concentrations used are as follows:\nas §1\nThe reverse sequence is also tested. […] Saquinavir is administered and the cells incubated for twenty-four (24) hours followed by addition of PEG-ASNase and an additional incubation period of twenty-four (24) hours, bringing the total exposure time to forty-eight (48) hours. Other than the drug sequence, the methodology is the same as that mentioned immediately above. The concurrent combination regimen is also tested using the same methodology. […] The concurrent combined methodology experiment had the samples exposed to forty-eight (48) hours of concurrent combined exposure."}, "[4]": {"tested_on": "asparagine, glutamine, and aspartic acid levels of CEM/0 cells", "assay": "Determination of amino acid levels after PEG-ASNase exposure (HPLC)", "type": "cell-based, human", "details": "24 hours exposure", "experimental": "Experiments to determine the amino acid level in cell suspensions and cell media are performed to determine the effect of PEG-ASNase on the amino acid levels, particularly the levels of asparagine, glutamine, and aspartic acid.\nSamples of 50 μl media and 10 μl of 1 mM aminoadopic acid are added to 450 μl of cold methanol in 1.5 ml microfuge tubes. The mixtures are vortexed and centrifuged at 8700 g for two minutes. The supernatants are transferred to borosilicate glass test tubes (13×100 mm) and lyophilized. The specimens are stored at −20° C. until they are analyzed by HPLC. Prior to HPLC analysis, the samples are dissolved in a buffer containing 95% […] disodium hydrogen phosphate and 5% acetonitrile."}}, "note": "Values joined by “and” are separate entries in the source; they are usually repeats but may differ in a detail not shown here. Equal values may be shown once.", "data": [{"molecule": "Cc1cn([C@H]2C[C@H](N=[N+]=[N-])[C@@H](CO)O2)c(=O)[nH]c1=O", "note": "[AZT, zidovudine]", "values": [{"measurement": "mean, X3", "setting": "[1]", "result": 102473, "unit": "copies/cell pellet"}, {"measurement": "N*", "setting": "[1]", "result": "107269 copies/cell pellet and 97933 copies/cell pellet and 102217 copies/cell pellet"}, {"measurement": "% control", "setting": "[1]", "result": 48, "unit": "%"}]}, {"molecule": "CC(C)(C)NC(=O)[C@@H]1C[C@@H]2CCCC[C@@H]2CN1C[C@@H](O)[C@H](Cc1ccccc1)NC(=O)[C@H](CC(N)=O)NC(=O)c1ccc2ccccc2n1", "note": "[Saquinavir]", "values": [{"measurement": "IC50", "setting": "[2]; 72 h, read-out: IC50 in CEM/0 cells", "result": 26, "unit": "µM"}, {"measurement": "IC50", "setting": "[2]; read-out: IC50 in CEM/0 cells", "result": "21 to 28", "unit": "µM"}, {"measurement": "IC50", "setting": "[2]; read-out: Saquinavir IC50 alone", "result": 25, "unit": "µM"}, {"measurement": "kill compared to untreated control", "setting": "[2]; Saquinavir 10 μM", "result": 8.76, "unit": "%"}, {"measurement": "kill compared to control cells", "setting": "[2]; Saquinavir 100 μM, highest concentration tested", "result": 99.50, "unit": "%"}, {"measurement": "cell kill", "setting": "[2]; Saquinavir 0.001 to 1 μM", "result": "no cell kill"}, {"measurement": "IC50", "setting": "[3]; Homo sapiens, CCRF-CEM, read-out: IC50 in combination, Saquinavir part, concurrent combination of PEG-ASNase and Saquinavir", "result": 14.5, "unit": "µM"}, {"measurement": "IC50", "setting": "[3]; read-out: IC50 in combination, Saquinavir part, concurrent combination of PEG-ASNase and Saquinavir, listed as SAQ", "result": 14.5, "unit": "µM"}, {"measurement": "inhibition of HIV-1 RNA production in comparison with the control", "setting": "[1]; Experiment 5 text", "result": "approximately 36%"}, {"measurement": "Log 10 N", "setting": "[1]; listed as SAQ", "result": "5.06 and 5.09"}, {"measurement": "mean, X3", "setting": "[1]", "result": 125628, "unit": "copies/cell pellet"}, {"measurement": "N*", "setting": "[1]; listed as SAQ", "result": "138583 copies/cell pellet and 109522 copies/cell pellet and 128780 copies/cell pellet"}, {"measurement": "% control", "setting": "[1]", "result": 59, "unit": "%"}]}, {"molecule": "B1", "values": [{"measurement": "PEG-ASNase IC50 alone", "setting": "[2]; CEM/0 T-cells, single agent", "result": "0.4 IU/ml and 0.40 IU/ml"}, {"measurement": "concentration that produces a cytostatic condition", "setting": "[2]; CEM/0 cells in vitro, over 72 hours", "result": "approximately 0.5 IU/ml"}, {"measurement": "effect on cell growth", "setting": "[2]; PEG-ASNase 0.03, 0.1, 0.2, 0.3 and 0.4 IU/ml, compared to control growth rate", "result": "marginally effective in preventing cell growth"}, {"measurement": "IC50 in combination, PEG-ASNase part", "setting": "[3]; concurrent combination of PEG-ASNase and Saquinavir", "result": 0.233, "unit": "IU/ml"}, {"measurement": "IC50 in combination, PEG-ASNase part", "setting": "[3]; concurrent combination of PEG-ASNase and Saquinavir, listed as PEG", "result": 0.23, "unit": "IU/ml"}, {"measurement": "glutamine level, % of the untreated control", "setting": "[4]; highest PEG-ASNase concentration", "result": "less than 3.0%"}, {"measurement": "asparagine level, % of the untreated control", "setting": "[4]; various PEG-ASNase concentrations", "result": "less than 3.0%"}, {"measurement": "Log 10 N", "setting": "[1]; listed as PEG", "result": "5.26 and 5.42"}, {"measurement": "mean, X3", "setting": "[1]", "result": 173448, "unit": "copies/cell pellet"}, {"measurement": "N*", "setting": "[1]; listed as PEG", "result": "183977 copies/cell pellet and 156304 copies/cell pellet and 180062 copies/cell pellet"}, {"measurement": "% control", "setting": "[1]", "result": 81, "unit": "%"}, {"measurement": "effect on HIV-RNA in cell pellets", "setting": "[1]; text of Experiments 5, 6 and 9", "result": "no apparent effect"}]}]}
